Data published in patent US9821173B2, “Anti-cancer agents and methods of use” (Case Western Reserve University, priority 2013, dated 2017).
Values joined by “and” are separate entries in the source; they are usually repeats but may differ in a detail not shown here. Identical values can stand only once. “Also recorded” adds a separate entry of the source.

Columns and labels:
[1] = Reactivity toward L-cysteine (DTNB); conditions: 400 μM L-cysteine with equivalent concentration of compound
[2] = target: BSA (Bos taurus, UniProt P02769); assay: Reactivity of Au(I)-compounds with BSA thiol (DTNB -SH titer); parameters: species or system bovine; conditions: 120 μM compound, Au(I)/BSA ratios up to 4:1, one hour, 37° C., PBS
Description: PBS was used as the reaction buffer.
We tested the ability of various Au(I)-complexes to non-selectively react with BSA. […] P2 resin was effective in retaining Au(I)-containing compounds including compound 3 and compound 4. However, BSA was not retained in the resin as >95% of the BSA loaded into the Penefsky column is recovered in the eluant. […] Values obtained from reactions containing BSA incubated with the various Au(I) complexes were compared to identical reactions containing BSA alone and eluted through Penefsky columns.

[3] = tested on: HeLa cells; assay: Cell cycle analyses (PI staining, flow cytometry); format: cell-based; conditions: for G1 (%) / G2/M (%) / S-Phase (%): 50 μM, 24 hours post-treatment
Description: Cells were plated at a density of 200,000/ml. Au(I)-Indole analogs were then added in a dose-dependent manner for time periods varying from 1 to 3 days. Cells were treated with 0.25% trypsin and harvested by centrifugation. The supernatant was removed and then washed with PBS. After aspiration of PBS, 500 μl of 70% ethanol was added and cells were incubated on ice for 15 minutes followed by centrifugation and the removal of ethanol. One ml of PI staining solution [(10 ml of 0.1 Triton X-100/PBS, 0.4 ml of 500 μg/ml of PI, and 2 mg/ml of DNase-free RNase)] was added to the cell suspension, placed on ice for 30 minutes, and then analyzed using a Beckman Coulter XL flow cytometer with a red filter.
We next analyzed the effects of compounds 3 and 4 on cell-cycle progression using PI staining to measure cellular DNA content. HeLa cells were treated with DMSO.

[4] = target: T1, FGFR2 (Homo sapiens, UniProt P21802); assay: Kinase inhibition screening (Luceome); format: biochemical; conditions: 10 μM
T1 construct: purchased Luceome Biotechnologies (Tucson, Ariz.)
Source text: (§1) It is well established that dysfunctional and unregulated kinase activity plays significant roles in cancer initiation and progression. […] Inspection of the data provides several interesting observations. […] These inhibitory effects at this concentration are consistent with their measured IC50 values that are also in the μM range (Table 1). In addition, several kinases display overlapping inhibitory responses to both gold(I) compounds. Many of these are of particular interest since they are involved in cancer initiation and/or progression. For example, the Aurora kinase family members, Aurora A and Aurora B, as well as the MARK2 and MARK3 kinases function during mitosis to regulate cell division. These kinases are important therapeutic targets as their activities are often deregulated in many types of cancers. Other kinases such as RPS6KA3 and MLK3 are involved in the MAP kinase and JNK pathways which are also important in cancer progression.

[5] = target: T2, PIM1 (Homo sapiens, UniProt P11309); assay: Kinase inhibition screening (Luceome); format: biochemical; conditions: 10 μM
T2 construct: purchased Luceome Biotechnologies (Tucson, Ariz.)
Source text: as §1

[6] = target: T3, AURKC (Homo sapiens, UniProt Q9UQB9); assay: Kinase inhibition screening (Luceome); format: biochemical; conditions: 10 μM
T3 construct: purchased Luceome Biotechnologies (Tucson, Ariz.)
Source text: as §1

[7] = target: T4, SNF1LK (Homo sapiens, UniProt P57059); assay: Kinase inhibition screening (Luceome); format: biochemical; conditions: 10 μM
T4 construct: purchased Luceome Biotechnologies (Tucson, Ariz.)
Source text: as §1

[8] = target: T5, CHEK1 (Homo sapiens, UniProt O14757); assay: Kinase inhibition screening (Luceome); format: biochemical; conditions: 10 μM
T5 construct: purchased Luceome Biotechnologies (Tucson, Ariz.)
Source text: as §1

[9] = target: T6, SLK (Homo sapiens, UniProt Q9H2G2); assay: Kinase inhibition screening (Luceome); format: biochemical; conditions: 10 μM
T6 construct: purchased Luceome Biotechnologies (Tucson, Ariz.)
Source text: as §1

[10] = target: T7, SYK (Homo sapiens, UniProt P43405); assay: Kinase inhibition screening (Luceome); format: biochemical; conditions: 10 μM
T7 construct: purchased Luceome Biotechnologies (Tucson, Ariz.)
Source text: as §1

[11] = target: T8, BLK (Homo sapiens, UniProt P51451); assay: Kinase inhibition screening (Luceome); format: biochemical; conditions: 10 μM
T8 construct: purchased Luceome Biotechnologies (Tucson, Ariz.)
Source text: as §1

[12] = target: T9, AMPK-α1 (Homo sapiens, UniProt Q13131); assay: Kinase inhibition screening (Luceome); format: biochemical; conditions: 10 μM
T9 construct: purchased Luceome Biotechnologies (Tucson, Ariz.)
Source text: as §1

[13] = target: T10, SNARK (Homo sapiens, UniProt Q9H093); assay: Kinase inhibition screening (Luceome); format: biochemical; conditions: 10 μM
T10 construct: purchased Luceome Biotechnologies (Tucson, Ariz.)
Source text: as §1

[14] = target: rat liver TrxR (Rattus norvegicus, UniProt O89049); assay: Thioredoxin reductase inhibition (DTNB assay); conditions: 40 μM compound, 600 nM TrxR, 25° C.
[15] = target: T11, ITK (Homo sapiens, UniProt Q08881); assay: Kinase inhibition screening (Luceome); format: biochemical; conditions: 10 μM
T11 construct: purchased Luceome Biotechnologies (Tucson, Ariz.)
Source text: as §1

[16] = target: T12, LYN (Homo sapiens, UniProt P07948); assay: Kinase inhibition screening (Luceome); format: biochemical; conditions: 10 μM
T12 construct: purchased Luceome Biotechnologies (Tucson, Ariz.)
Source text: as §1

[17] = target: T13, FYN (Homo sapiens, UniProt P06241); assay: Kinase inhibition screening (Luceome); format: biochemical; conditions: 10 μM
T13 construct: purchased Luceome Biotechnologies (Tucson, Ariz.)
Source text: as §1

[18] = target: T14, MARK1 (Homo sapiens, UniProt Q9P0L2); assay: Kinase inhibition screening (Luceome); format: biochemical; conditions: 10 μM
T14 construct: purchased Luceome Biotechnologies (Tucson, Ariz.)
Source text: as §1

[19] = target: T15, GSK3α (Homo sapiens, UniProt P49840); assay: Kinase inhibition screening (Luceome); format: biochemical; conditions: 10 μM
T15 construct: purchased Luceome Biotechnologies (Tucson, Ariz.)
Source text: as §1

[20] = target: T16, MARK2 (Homo sapiens, UniProt Q7KZI7); assay: Kinase inhibition screening (Luceome); format: biochemical; conditions: 10 μM
T16 construct: purchased Luceome Biotechnologies (Tucson, Ariz.)
Source text: as §1

[21] = target: T17, IGF1R (Homo sapiens, UniProt P08069); assay: Kinase inhibition screening (Luceome); format: biochemical; conditions: 10 μM
T17 construct: purchased Luceome Biotechnologies (Tucson, Ariz.)
Source text: as §1

[22] = target: T18, FLT3 (Homo sapiens, UniProt P36888); assay: Kinase inhibition screening (Luceome); format: biochemical; conditions: 10 μM
T18 construct: purchased Luceome Biotechnologies (Tucson, Ariz.)
Source text: as §1

[23] = tested on: FLT2; assay: Kinase inhibition screening (Luceome); format: biochemical, human; conditions: 10 μM
Source text: as §1

T1 sequence (P21802 22-821): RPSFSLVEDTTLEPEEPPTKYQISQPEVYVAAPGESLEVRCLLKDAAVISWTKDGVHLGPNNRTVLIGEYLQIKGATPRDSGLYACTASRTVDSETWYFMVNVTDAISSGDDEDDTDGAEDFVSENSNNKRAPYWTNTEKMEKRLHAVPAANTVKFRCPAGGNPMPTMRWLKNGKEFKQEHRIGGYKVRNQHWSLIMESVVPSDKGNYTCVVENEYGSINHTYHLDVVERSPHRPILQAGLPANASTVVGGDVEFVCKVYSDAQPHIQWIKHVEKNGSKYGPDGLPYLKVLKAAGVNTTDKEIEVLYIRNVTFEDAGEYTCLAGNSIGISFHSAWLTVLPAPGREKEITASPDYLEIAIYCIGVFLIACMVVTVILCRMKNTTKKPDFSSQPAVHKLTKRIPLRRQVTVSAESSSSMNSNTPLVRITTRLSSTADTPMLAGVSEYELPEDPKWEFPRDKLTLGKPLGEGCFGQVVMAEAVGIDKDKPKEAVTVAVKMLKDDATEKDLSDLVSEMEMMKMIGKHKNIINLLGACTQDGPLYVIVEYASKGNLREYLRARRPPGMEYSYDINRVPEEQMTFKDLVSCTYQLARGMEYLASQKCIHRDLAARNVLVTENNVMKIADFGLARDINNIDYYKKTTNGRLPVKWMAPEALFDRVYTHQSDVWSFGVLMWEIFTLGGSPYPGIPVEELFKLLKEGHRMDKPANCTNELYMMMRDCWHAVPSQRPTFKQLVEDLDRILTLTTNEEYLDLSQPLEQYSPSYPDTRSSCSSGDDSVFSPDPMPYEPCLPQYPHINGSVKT
T6 sequence (Q9H2G2 whole entry): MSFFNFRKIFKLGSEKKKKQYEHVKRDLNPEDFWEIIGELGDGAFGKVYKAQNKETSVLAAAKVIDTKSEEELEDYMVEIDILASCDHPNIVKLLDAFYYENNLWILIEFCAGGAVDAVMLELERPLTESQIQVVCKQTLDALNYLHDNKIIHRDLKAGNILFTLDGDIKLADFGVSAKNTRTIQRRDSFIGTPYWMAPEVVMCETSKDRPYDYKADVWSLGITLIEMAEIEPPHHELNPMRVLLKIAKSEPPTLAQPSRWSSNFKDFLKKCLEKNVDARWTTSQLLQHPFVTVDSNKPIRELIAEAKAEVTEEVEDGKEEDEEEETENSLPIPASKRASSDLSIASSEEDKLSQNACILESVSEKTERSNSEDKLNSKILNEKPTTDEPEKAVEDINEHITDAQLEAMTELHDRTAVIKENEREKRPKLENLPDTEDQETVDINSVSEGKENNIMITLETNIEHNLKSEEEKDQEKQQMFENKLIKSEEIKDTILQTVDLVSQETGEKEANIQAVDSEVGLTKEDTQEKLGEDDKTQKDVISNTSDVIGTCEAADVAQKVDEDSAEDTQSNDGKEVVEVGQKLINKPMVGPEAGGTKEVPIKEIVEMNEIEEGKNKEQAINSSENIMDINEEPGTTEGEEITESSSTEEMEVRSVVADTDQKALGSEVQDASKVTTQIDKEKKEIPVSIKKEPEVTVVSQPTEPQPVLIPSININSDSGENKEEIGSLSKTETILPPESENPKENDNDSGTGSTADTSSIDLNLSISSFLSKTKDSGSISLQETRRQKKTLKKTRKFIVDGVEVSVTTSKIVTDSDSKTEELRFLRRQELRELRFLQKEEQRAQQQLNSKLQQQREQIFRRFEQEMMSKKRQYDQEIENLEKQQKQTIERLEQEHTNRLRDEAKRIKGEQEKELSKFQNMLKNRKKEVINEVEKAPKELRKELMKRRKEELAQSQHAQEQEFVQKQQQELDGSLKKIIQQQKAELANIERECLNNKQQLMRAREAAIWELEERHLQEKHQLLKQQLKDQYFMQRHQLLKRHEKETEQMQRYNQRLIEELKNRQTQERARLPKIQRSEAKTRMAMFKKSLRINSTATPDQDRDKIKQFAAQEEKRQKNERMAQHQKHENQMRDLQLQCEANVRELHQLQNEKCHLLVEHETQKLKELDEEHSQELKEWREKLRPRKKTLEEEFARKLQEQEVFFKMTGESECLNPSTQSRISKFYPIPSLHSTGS
T3 sequence (Q9UQB9 whole entry): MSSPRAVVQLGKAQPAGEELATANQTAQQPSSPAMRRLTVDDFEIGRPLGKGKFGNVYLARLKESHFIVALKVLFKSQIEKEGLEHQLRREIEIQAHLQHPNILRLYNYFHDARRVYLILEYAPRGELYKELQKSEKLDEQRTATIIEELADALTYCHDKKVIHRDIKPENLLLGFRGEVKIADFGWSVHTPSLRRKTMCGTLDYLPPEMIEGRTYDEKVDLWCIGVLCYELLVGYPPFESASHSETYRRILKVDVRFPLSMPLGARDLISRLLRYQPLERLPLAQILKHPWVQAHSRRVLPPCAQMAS
T4 sequence (P57059 whole entry): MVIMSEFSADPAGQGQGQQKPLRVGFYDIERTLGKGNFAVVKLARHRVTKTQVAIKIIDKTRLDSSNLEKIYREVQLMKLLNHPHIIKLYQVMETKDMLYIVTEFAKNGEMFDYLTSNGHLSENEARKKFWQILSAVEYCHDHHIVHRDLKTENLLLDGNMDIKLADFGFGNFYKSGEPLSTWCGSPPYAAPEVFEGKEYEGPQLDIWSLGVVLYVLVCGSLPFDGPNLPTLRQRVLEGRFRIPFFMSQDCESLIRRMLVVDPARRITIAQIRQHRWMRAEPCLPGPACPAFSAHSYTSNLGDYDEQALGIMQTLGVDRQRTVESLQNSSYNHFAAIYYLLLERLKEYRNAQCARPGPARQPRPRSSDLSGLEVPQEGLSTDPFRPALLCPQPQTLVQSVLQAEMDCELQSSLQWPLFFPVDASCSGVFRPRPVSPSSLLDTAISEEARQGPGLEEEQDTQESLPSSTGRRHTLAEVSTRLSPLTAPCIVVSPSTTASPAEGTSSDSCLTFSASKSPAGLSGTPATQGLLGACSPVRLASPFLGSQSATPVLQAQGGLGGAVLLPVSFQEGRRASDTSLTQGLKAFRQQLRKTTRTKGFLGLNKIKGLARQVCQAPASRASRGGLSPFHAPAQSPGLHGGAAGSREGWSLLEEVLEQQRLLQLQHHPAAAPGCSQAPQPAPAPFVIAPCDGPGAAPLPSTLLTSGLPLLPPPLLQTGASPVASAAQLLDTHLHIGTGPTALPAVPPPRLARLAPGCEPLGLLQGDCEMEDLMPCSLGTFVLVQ
T5 sequence (O14757 whole entry): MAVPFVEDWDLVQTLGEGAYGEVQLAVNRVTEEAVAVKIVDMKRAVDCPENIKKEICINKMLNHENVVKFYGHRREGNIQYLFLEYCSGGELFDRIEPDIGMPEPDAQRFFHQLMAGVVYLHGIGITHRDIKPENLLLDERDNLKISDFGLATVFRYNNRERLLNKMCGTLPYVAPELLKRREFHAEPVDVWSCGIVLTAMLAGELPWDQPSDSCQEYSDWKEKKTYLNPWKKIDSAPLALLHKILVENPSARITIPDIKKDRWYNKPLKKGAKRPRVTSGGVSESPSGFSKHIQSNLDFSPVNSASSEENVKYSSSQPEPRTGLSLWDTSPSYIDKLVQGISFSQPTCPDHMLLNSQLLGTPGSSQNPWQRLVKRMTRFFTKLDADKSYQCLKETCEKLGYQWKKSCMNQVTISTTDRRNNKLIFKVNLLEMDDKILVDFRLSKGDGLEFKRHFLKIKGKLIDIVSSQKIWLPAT
T2 sequence (P11309 whole entry): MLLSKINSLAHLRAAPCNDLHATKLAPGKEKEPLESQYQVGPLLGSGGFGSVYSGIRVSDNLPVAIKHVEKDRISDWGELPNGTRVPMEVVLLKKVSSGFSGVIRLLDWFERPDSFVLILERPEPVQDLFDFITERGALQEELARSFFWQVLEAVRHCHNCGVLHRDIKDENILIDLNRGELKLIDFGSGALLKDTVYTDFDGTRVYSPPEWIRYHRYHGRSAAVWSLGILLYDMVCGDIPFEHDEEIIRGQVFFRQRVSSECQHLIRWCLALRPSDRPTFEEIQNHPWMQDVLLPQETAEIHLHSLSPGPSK
T9 sequence (Q13131 whole entry): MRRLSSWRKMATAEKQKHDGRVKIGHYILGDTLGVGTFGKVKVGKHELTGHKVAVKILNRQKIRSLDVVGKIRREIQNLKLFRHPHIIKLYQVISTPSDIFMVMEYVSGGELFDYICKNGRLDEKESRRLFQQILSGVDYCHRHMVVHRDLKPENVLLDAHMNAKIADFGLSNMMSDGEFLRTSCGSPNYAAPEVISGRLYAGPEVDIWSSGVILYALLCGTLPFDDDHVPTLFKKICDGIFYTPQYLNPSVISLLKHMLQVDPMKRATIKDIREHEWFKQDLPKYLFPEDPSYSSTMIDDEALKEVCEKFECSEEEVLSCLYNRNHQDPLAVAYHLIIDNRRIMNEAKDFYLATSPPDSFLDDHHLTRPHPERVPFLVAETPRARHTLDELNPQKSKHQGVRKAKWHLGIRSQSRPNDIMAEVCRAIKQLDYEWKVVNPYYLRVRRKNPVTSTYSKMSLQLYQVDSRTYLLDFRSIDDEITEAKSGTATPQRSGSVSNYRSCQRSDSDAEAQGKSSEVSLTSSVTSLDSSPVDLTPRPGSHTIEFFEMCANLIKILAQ
T8 sequence (P51451 whole entry): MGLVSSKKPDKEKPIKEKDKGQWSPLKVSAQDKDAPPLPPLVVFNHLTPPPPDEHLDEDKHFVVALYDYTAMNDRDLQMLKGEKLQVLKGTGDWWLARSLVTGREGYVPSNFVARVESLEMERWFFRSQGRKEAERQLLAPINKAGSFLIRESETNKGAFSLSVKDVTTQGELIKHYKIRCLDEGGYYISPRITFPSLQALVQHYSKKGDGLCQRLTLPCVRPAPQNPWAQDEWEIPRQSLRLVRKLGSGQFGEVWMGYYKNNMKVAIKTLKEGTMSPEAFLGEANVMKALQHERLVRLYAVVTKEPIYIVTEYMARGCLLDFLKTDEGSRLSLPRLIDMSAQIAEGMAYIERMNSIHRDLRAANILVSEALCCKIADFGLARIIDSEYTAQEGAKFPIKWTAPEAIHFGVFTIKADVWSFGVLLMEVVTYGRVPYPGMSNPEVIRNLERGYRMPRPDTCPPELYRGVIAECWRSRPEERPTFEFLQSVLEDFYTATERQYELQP

Row | SMILES | G1 (%) [3] | G2/M (%) [3] | S-Phase (%) [3] | % Inhibition FGFR2 [4] [%] | % Inhibition PIM1 [5] [%] | % Inhibition AURKC [6] [%] | % Inhibition SNF1LK [7] [%] | % Inhibition CHEK1 [8] [%] | % Inhibition SLK [9] [%] | % Inhibition SYK [10] [%] | % Inhibition BLK [11] [%] | % Inhibition AMPK-α1 [12] [%] | % Inhibition SNARK [13] [%] | further results
1 | CC(C)(C)OC(=O)n1ccc2c[c]([Au-][P+](c3ccccc3)(c3ccccc3)c3ccccc3)ccc21 [Compound 3, 5-{Triphenylphosphine aurate(I)}-tert-butyl1H-indole-1-carboxylate] | 45.4 +/− 2.1% | 13.0 +/− 2.1% | 41.6 +/− 0.1% | 5.1 | 0 | 23.9 | 0 | 0 | 0 | 21.6 | 0 | 0 | 0 | change in free -SH on L-cysteine [1]: does not change the titer of free —SH; also recorded: does not cause a change in the amount of free —SH; reactivity with BSA (relative thiol content, -SH titer) [2]: relative thiol content of BSA remains unchanged; alterations in cell-cycle progression ([3]; over a 24 hour period): does not cause any significant alterations in cell-cycle progression; inhibition of TrxR activity [14]: 17%
2 | CC(C)(C)OC(=O)n1ccc2c[c]([Au-][P+](C3CCCCC3)(C3CCCCC3)C3CCCCC3)ccc21 [Compound 4, 5-{Tricyclohexylphosphine aurate(I)}-tert-butyl1H-indole-1-carboxylate] | 60.3+/−3.2% and 60.3 +/− 0.8% | 11.4 +/− 4.9% | 28.3 +/− 1.3% | 0 | 10.6 | 35.0 | 40.6 | 0 | 19.6 | 40.7 | 0 | 0 | 39.5 | % Inhibition ITK [15]: 3.1%; % Inhibition LYN [16]: 0%; % Inhibition FYN [17]: 1.2%; % Inhibition MARK1 [18]: 11.9%; % Inhibition GSK3α [19]: 5.8%; % Inhibition MARK2 [20]: 26.2%; % Inhibition IGF1R [21]: 4.7%; % Inhibition FLT3 [22]: 0%; % Inhibition FLT2 [23]: 0%
